Laboratory results: patent publication US6737383B1, “Herbicidal oxadiazolidines” (priority 1999, dated 2004)

How the values were obtained:
bedstraw = test: Test B pre/postemergence bedstraw; type: in vivo, Galium aparine
Method in brief: (§1)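 Herbicidal effect was estimated by eye on a ten-point control scale after plants spent twelve to sixteen days in a greenhouse following soil or foliar treatment. Foliar sprays targeted plants at one to four leaves; all doses were formulated in a non-phytotoxic solvent with surfactant.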

blackgrass = test: Test B pre/postemergence blackgrass; type: in vivo, Alopecurus myosuroides
Method in brief: as §1

surinam grass = test: Test B pre/postemergence surinam grass; type: in vivo, Brachiaria decumbens
Method in brief: as §1

corn = test: Test B pre/postemergence corn; type: in vivo, Zea mays
Method in brief: as §1

crabgrass = test: Test B pre/postemergence crabgrass; type: in vivo, Digitaria sanguinalis
Method in brief: as §1

giant foxtail = test: Test B pre/postemergence giant foxtail; type: in vivo, Setaria faberii
Method in brief: as §1

rape = test: Test B pre/postemergence rape; type: in vivo, Brassica napus
Method in brief: as §1

sugar beet = test: Test B pre/postemergence sugar beet; type: in vivo, Beta vulgaris
Method in brief: as §1

velvetleaf = test: Test B pre/postemergence velvetleaf; type: in vivo, Abutilon theophrasti
Method in brief: as §1

wheat = test: Test B pre/postemergence wheat; type: in vivo, Triticum aestivum
Method in brief: as §1

wild oat = test: Test B pre/postemergence wild oat; type: in vivo, Avena fatua
Method in brief: as §1

purple nutsedge = test: Test B pre/postemergence purple nutsedge; type: in vivo, Cyperus rotundus; details: Postemergence
Method in brief: as §1

rice = test: Test B flood test rice; type: in vivo, Oryza sativa
Method in brief: (§2)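 Read-out is a visual response score from 0 (no effect) to 10 (complete control), assigned by comparison with untreated controls. Treatment was applied at the 2-leaf stage, and plants stayed in the greenhouse for twelve to sixteen days before scoring.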

smallflower flatsedge = test: Test B flood test smallflower flatsedge; type: in vivo, Cyperus difformis
Method in brief: as §2

duck salad = test: Test B flood test duck salad; type: in vivo, Heteranthera limosa
Method in brief: as §2

bamyardgrass = test: Test B flood test barnyardgrass; type: in vivo, Echinochloa crus-galli
Method in brief: as §2

[1] = Postemergence, Rate 250 g/ha, scale 0 to 10, 0 no effect, 10 complete control
[2] = Postemergence, Rate 1000 g/ha, scale 0 to 10 (0 no effect, 10 complete control)
[3] = Preemergence, Rate 125 g/ha, scale 0 to 10 (0 no effect, 10 complete control)
[4] = Preemergence, Rate 250 g/ha, scale of 0 to 10 where 0 is no effect and 10 is complete control
[5] = Preemergence, Rate 500 g/ha, scale 0 (no effect) to 10 (complete control)
[6] = Rate 125 g/ha, Postemergence, scale 0 to 10, 0 no effect, 10 complete control
[7] = Rate 500 g/ha, Postemergence, 0 to 10 scale (0 no effect, 10 complete control)
[8] = Rate 1000 g/ha, Preemergence, scale 0 to 10 (0 no effect, 10 complete control)
[9] = Rate 125 g/ha, Postemergence section (flood test species), scale 0 to 10, 0 no effect, 10 complete control
[10] = Rate 500 g/ha, Postemergence section of Table B, 0 to 10 scale (0 no effect, 10 complete control)
[11] = flood test, listed under Postemergence, Rate 250 g/ha, scale 0 to 10, 0 no effect, 10 complete control

CCN(CC)C(=O)n1oc(=O)n(-c2ccc(F)cc2)c1=O [Compound 3]
Bedstraw plant response rating (bedstraw; [1]): 0 | Bedstraw plant response rating (bedstraw; [2]): 0 | Plant response rating, Bedstraw (bedstraw; [3]): 0 | Plant response rating, Bedstraw (bedstraw; [4]): 0 | Bedstraw plant response rating (bedstraw; [5]): 0 | Bedstraw plant response rating (bedstraw; [6]): 0 | Bedstraw plant response rating (bedstraw; [7]): 0 | Plant response rating, Bedstraw (bedstraw; [8]): 0 | Blackgrass plant response rating (blackgrass; [1]): 0 | Blackgrass plant response rating (blackgrass; [2]): 3 | Plant response rating, Blackgrass (blackgrass; [3]): 0 | Plant response rating, Blackgrass (blackgrass; [4]): 0 | Blackgrass plant response rating (blackgrass; [5]): 0 | Blackgrass plant response rating (blackgrass; [6]): 0 | Blackgrass plant response rating (blackgrass; [7]): 0 | Plant response rating, Blackgrass (blackgrass; [8]): 0 | B. signalgrass plant response rating (surinam grass; [1]): 0 | B. signalgrass plant response rating (surinam grass; [2]): 0 | Plant response rating, B. signalgrass (surinam grass; [3]): 0 | Plant response rating, B. signalgrass (surinam grass; [4]): 0 | B. signalgrass plant response rating (surinam grass; [5]): 0 | B. signalgrass plant response rating (surinam grass; [6]): 0 | B. signalgrass plant response rating (surinam grass; [7]): 0 | Plant response rating, B. signalgrass (surinam grass; [8]): 0 | Corn plant response rating (corn; [1]): 0 | Corn plant response rating (corn; [2]): 0 | Plant response rating, Corn (corn; [3]): 0 | Plant response rating, Corn (corn; [4]): 0 | Corn plant response rating (corn; [5]): 0 | Corn plant response rating (corn; [6]): 0 | Corn plant response rating (corn; [7]): 0 | Plant response rating, Corn (corn; [8]): 0 | Crabgrass plant response rating (crabgrass; [1]): 0 | Crabgrass plant response rating (crabgrass; [2]): 7 | Plant response rating, Crabgrass (crabgrass; [3]): 0 | Plant response rating, Crabgrass (crabgrass; [4]): 0 | Crabgrass plant response rating (crabgrass; [5]): 0 | Crabgrass plant response rating (crabgrass; [6]): 0 | Crabgrass plant response rating (crabgrass; [7]): 6 | Plant response rating, Crabgrass (crabgrass; [8]): 2 | Giant foxtail plant response rating (giant foxtail; [1]): 3 | Giant foxtail plant response rating (giant foxtail; [2]): 8 | Plant response rating, Giant foxtail (giant foxtail; [3]): 0 | Plant response rating, Giant foxtail (giant foxtail; [4]): 1 | Giant foxtail plant response rating (giant foxtail; [5]): 8 | Giant foxtail plant response rating (giant foxtail; [6]): 0 | Giant foxtail plant response rating (giant foxtail; [7]): 7 | Plant response rating, Giant foxtail (giant foxtail; [8]): 10 | Rape plant response rating (rape; [1]): 0 | Rape plant response rating (rape; [2]): 0 | Plant response rating, Rape (rape; [3]): 0 | Plant response rating, Rape (rape; [4]): 0 | Rape plant response rating (rape; [5]): 0 | Rape plant response rating (rape; [6]): 0 | Rape plant response rating (rape; [7]): 0 | Plant response rating, Rape (rape; [8]): 0 | Sugarbeets plant response rating (sugar beet; [1]): 0 | Sugarbeets plant response rating (sugar beet; [2]): 0 | Plant response rating, Sugarbeets (sugar beet; [3]): 0 | Plant response rating, Sugarbeets (sugar beet; [4]): 0 | Sugarbeets plant response rating (sugar beet; [5]): 0 | Sugarbeets plant response rating (sugar beet; [6]): 0 | Plant response rating, Sugarbeets (sugar beet; [8]): 0 | Velvetleaf plant response rating (velvetleaf; [1]): 0 | Velvetleaf plant response rating (velvetleaf; [2]): 0 | Plant response rating, Velvetleaf (velvetleaf; [3]): 0 | Plant response rating, Velvetleaf (velvetleaf; [4]): 0 | Velvetleaf plant response rating (velvetleaf; [5]): 0 | Velvetleaf plant response rating (velvetleaf; [6]): 0 | Plant response rating, Velvetleaf (velvetleaf; [8]): 0 | Wheat plant response rating (wheat; [1]): 0 | Wheat plant response rating (wheat; [2]): 0 | Plant response rating, Wheat (wheat; [3]): 0 | Plant response rating, Wheat (wheat; [4]): 0 | Wheat plant response rating (wheat; [5]): 0 | Wheat plant response rating (wheat; [6]): 0 | Plant response rating, Wheat (wheat; [8]): 0 | Wild oats plant response rating (wild oat; [1]): 0 | Wild oats plant response rating (wild oat; [2]): 0 | Plant response rating, Wild oats (wild oat; [3]): 0 | Plant response rating, Wild oats (wild oat; [4]): 0 | Wild oats plant response rating (wild oat; [5]): 0 | Wild oats plant response rating (wild oat; [6]): 0 | Plant response rating, Wild oats (wild oat; [8]): 0 | Nutsedge plant response rating (purple nutsedge; Rate 250 g/ha, scale 0 to 10, 0 no effect, 10 complete control): 0 | Nutsedge plant response rating (purple nutsedge; Rate 1000 g/ha, scale 0 to 10 (0 no effect, 10 complete control)): 0 | Nutsedge plant response rating (purple nutsedge; Rate 125 g/ha, scale 0 to 10, 0 no effect, 10 complete control): 0 | Nutsedge plant response rating (purple nutsedge; Rate 500 g/ha, 0 to 10 scale (0 no effect, 10 complete control)): 0 | Rice plant response rating (rice; [2]): 0 | Rice plant response rating (rice; [9]): 0 | Rice plant response rating (rice; [10]): 0 | Rice plant response rating (rice; [11]): 0 | S. Flatsedge plant response rating (smallflower flatsedge; [2]): 0 | S. Flatsedge plant response rating (smallflower flatsedge; [9]): 0 | S. Flatsedge plant response rating (smallflower flatsedge; [11]): 0 | Ducksalad plant response rating (duck salad; [2]): 0 | Ducksalad plant response rating (duck salad; [9]): 0 | Ducksalad plant response rating (duck salad; [10]): 0 | Ducksalad plant response rating (duck salad; [11]): 0 | Barnyardgrass plant response rating (bamyardgrass; [2]): 0 | Barnyardgrass plant response rating (bamyardgrass; [9]): 0 | Barnyardgrass plant response rating (bamyardgrass; [10]): 0 | Barnyardgrass plant response rating (bamyardgrass; [11]): 0
